Assay results reported in US20250084056A1, “SUBSTITUTED OXOISOINDOLINYL PIPERIDINE-2,6-DIONE COMPOUNDS” (BRISTOL-MYERS SQUIBB COMPANY, priority 2023, published 2025).

Columns and labels:
pS807/811 Rb1 = experiment: Inhibition of RB1 phosphorylation (Western blot) in HCC1569 cells; assay type: cell-based; details: HCC1569 cancer cells, 24 h, FIG. 1B
Procedure: The assay measured the ability of the compound to degrade Cyclin E1, inhibit RB phosphorylation, and to determine the selectivity against degradation of GSPT1 in cancer cells in vitro. HCC1569 cells (ATCC #CRL-2330) were cultured in RPMI media (Gibco, catalog A104910) supplemented with 10% FBS (Gibco, catalog 10091148). Cells were plated in tissue culture-treated 6 well plates at a density of 0.5 million cells per well in 2 mL media. The cells were then incubated overnight in a cell culture incubator (5% CO2 and 37° C.) and allowed to attach to the plate. The following day cells were dosed with compounds at the desired concentrations. Compounds were first resuspended in DMSO to make 10 mM stock, and 20 μM stock was prepared by diluting 10 mM stock in culture media. […] Total protein concentration was measured using a BCA assay kit (Thermo Scientific, cat #P123227). […] Protein was then detected by incubating blots with 2 mL of HRP detection reagent (Thermo scientific cat #A38556) for one minute at room temperature. Excess reagent was drained and gently removed on a Kimwipe and the chemiluminescence signal was detected using Fluorchem imaging system. […] Relative quantification of western blots was performed using ImageJ software, data was then normalized to loading control (β-Actin) first and then to the DMSO-treated sample. […]

[1] = system: NIHOVCAR3 ovarian adenocarcinoma xenograft model; experiment: In vivo xenograft tumor efficacy study, NIHOVCAR3; design: species or system mice; details: OVCAR3 xenografts, repeated dosing
Procedure: The anti-cancer efficacy of Example 35 was evaluated in xenograft models by measuring the reduction in tumor volume in animals treated with Example 35 compared to vehicle control animals. First, 5-10×10^6 tumor cells/animal in a 1:1 Matrigel® mix (0.2 mL total volume) were injected subcutaneously into female NSG mice (for NIHOVCAR3) and SCID mice (for HCC1569). Both strains of mice were purchased from Jackson Laboratory. Once tumors reached ˜150-200 mm^3, animals were randomized into groups of 8-10 animals/treatment arm for efficacy studies. Example 35 was administered via oral gavage (PO) at indicated doses and regimens (Table 7). Tumor growth and body weight were measured twice/week during the course of the study to evaluate efficacy and signs of toxicity.
Example 35 was formulated in 10% ethanol, 10% Vitamin E—TPGS, 30% propylene glycol, 50% PEG400 and administered by oral gavage (final volume 0.2 mL) at the doses indicated in Table 7. […]
The efficacy for each treated arm at different dose levels were calculated using the following formula: % ΔT/ΔC=[(TVT−TVT0)/(TVC−TVC0)]×100%. […] The percentage of tumor growth inhibition was calculated from the formula: % TGI=[100%−(% ΔT/ΔC)]. […]
Example 35 was evaluated for in vivo single-agent efficacy against the HCC1569 breast carcinoma xenograft model and NIHOVCAR3 ovarian adenocarcinoma xenograft model.

## COc1c(COC(=O)Nc2ccc(Oc3ccc(F)c(F)c3)cc2)ccc2c1C(=O)N([C@H]1CCC(=O)NC1=O)C2 (single isomer, unassigned) [Example 35, {2-[(3 S)-2,6-dioxopiperidin-3-yl]-4-methoxy-3-oxo-2,3-dihydro-1H-isoindol-5-yl}methyl N-[4-(3,4-difluorophenoxy)phenyl]carbamate]
pS807/811 Rb1
  inhibition of RB1 phosphorylation: inhibited RB1 phosphorylation
[1]
  anti-tumor activity: dose-dependent anti-tumor activity
